# PubChem BioAssay (NCI)
#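 Abbreviation: GI50, concentration required for 50% inhibition of growth. TGI marks complete inhibition of growth.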
# Assays:
# Experiment in all cases: inhibition of tumour cell growth, NCI panel, 384-well format
# MCF7 breast = tested on: MCF7 breast
# NCI-H522 lung = tested on: NCI-H522 lung
# CCRF-CEM leukemia = tested on: CCRF-CEM leukemia
# RPMI-8226 leukemia = tested on: RPMI-8226 leukemia
# MDA-MB-468 breast = tested on: MDA-MB-468 breast
# M14 melanoma = tested on: M14 melanoma
# SW-620 colon = tested on: SW-620 colon
# MDA-MB-435 melanoma = tested on: MDA-MB-435 melanoma
# SNB-75 CNS = tested on: SNB-75 CNS
# RXF 393 renal = tested on: RXF 393 renal
# NCI-H226 lung = tested on: NCI-H226 lung
# OVCAR-8 ovarian = tested on: OVCAR-8 ovarian
# T-47D breast = tested on: T-47D breast
# OVCAR-5 ovarian = tested on: OVCAR-5 ovarian
# EKVX NSCLC = tested on: EKVX NSCLC
# IGROV1 ovarian = tested on: IGROV1 ovarian
# OVCAR-4 ovarian = tested on: OVCAR-4 ovarian
# SK-MEL-28 melanoma = tested on: SK-MEL-28 melanoma
# SNB-19 CNS = tested on: SNB-19 CNS
# SF-295 CNS = tested on: SF-295 CNS
# HOP-62 NSCLC = tested on: HOP-62 NSCLC
# ACHN renal = tested on: ACHN renal
# HT29 colon = tested on: HT29 colon
# DU-145 prostate = tested on: DU-145 prostate
# HCT-15 colon = tested on: HCT-15 colon
# NCI-H322M lung = tested on: NCI-H322M lung
# A498 renal = tested on: A498 renal
# CAKI-1 renal = tested on: CAKI-1 renal
# BT-549 breast = tested on: BT-549 breast
# SN12C renal = tested on: SN12C renal
# MALME-3M melanoma = tested on: MALME-3M melanoma
# NCI/ADR-RES ovarian = tested on: NCI/ADR-RES ovarian
# KM12 colon = tested on: KM12 colon
# COLO 205 colon = tested on: COLO 205 colon
# UACC-62 melanoma = tested on: UACC-62 melanoma
# MDA-MB-231 breast = tested on: MDA-MB-231 breast
# HS 578T breast = tested on: HS 578T breast
# TK-10 renal = tested on: TK-10 renal
# SR leukemia = tested on: SR leukemia
# SK-OV-3 ovarian = tested on: SK-OV-3 ovarian
# U251 glioblastoma = tested on: U251 glioblastoma
# HCC-2998 colon = tested on: HCC-2998 colon
# SK-MEL-5 melanoma = tested on: SK-MEL-5 melanoma
# 786-0 renal = tested on: 786-0 renal
# HL-60(TB) leukemia = tested on: HL-60(TB) leukemia
# SF-268 CNS = tested on: SF-268 CNS
# A549 NSCLC = tested on: A549 NSCLC
# MOLT-4 leukemia = tested on: MOLT-4 leukemia
# NCI-H460 NSCLC = tested on: NCI-H460 NSCLC
# SF-539 CNS = tested on: SF-539 CNS
# NCI-H23 lung = tested on: NCI-H23 lung
# PC-3 prostate = tested on: PC-3 prostate
# UACC-257 melanoma = tested on: UACC-257 melanoma
# HOP-92 NSCLC = tested on: HOP-92 NSCLC
# OVCAR-3 ovarian = tested on: OVCAR-3 ovarian
compound,measurement,setting,value
Nc1nc(N)c(N=O)c(OCC2CCCCC2)n1,GI50,MCF7 breast,5.22 µM
same,TGI,MCF7 breast,91.6 µM
same,GI50,NCI-H522 lung,5.92 µM
same,TGI,NCI-H522 lung,25.1 µM
same,GI50,CCRF-CEM leukemia,4.9 µM
same,TGI,CCRF-CEM leukemia,17 µM
same,GI50,RPMI-8226 leukemia,4.88 µM
same,TGI,RPMI-8226 leukemia,13.9 µM
same,GI50,MDA-MB-468 breast,3.29 µM
same,TGI,MDA-MB-468 breast,10.8 µM
same,GI50,M14 melanoma,11.4 µM
same,TGI,M14 melanoma,79 µM
same,GI50,SW-620 colon,45.9 µM
same,TGI,SW-620 colon,> 100 µM
same,GI50,MDA-MB-435 melanoma,25.4 µM
same,TGI,MDA-MB-435 melanoma,> 100 µM
same,GI50,SNB-75 CNS,4.38 µM
same,TGI,SNB-75 CNS,19.7 µM
same,GI50,RXF 393 renal,5.32 µM
same,TGI,RXF 393 renal,27.1 µM
same,GI50,NCI-H226 lung,10.9 µM
same,TGI,NCI-H226 lung,54.1 µM
same,GI50,OVCAR-8 ovarian,32.9 µM
same,TGI,OVCAR-8 ovarian,> 100 µM
same,GI50,T-47D breast,6.41 µM
same,TGI,T-47D breast,33.1 µM
same,GI50,OVCAR-5 ovarian,17.2 µM
same,TGI,OVCAR-5 ovarian,82.2 µM
same,GI50,EKVX NSCLC,22.3 µM
same,TGI,EKVX NSCLC,70.3 µM
same,GI50,IGROV1 ovarian,4.21 µM
same,TGI,IGROV1 ovarian,18.1 µM
same,GI50,OVCAR-4 ovarian,19.2 µM
same,TGI,OVCAR-4 ovarian,49.3 µM
same,GI50,SK-MEL-28 melanoma,22.3 µM
same,TGI,SK-MEL-28 melanoma,97.1 µM
same,GI50,SNB-19 CNS,31.1 µM
same,TGI,SNB-19 CNS,> 100 µM
same,GI50,SF-295 CNS,26 µM
same,TGI,SF-295 CNS,87 µM
same,GI50,HOP-62 NSCLC,4.57 µM
same,TGI,HOP-62 NSCLC,24.7 µM
same,GI50,ACHN renal,27.3 µM
same,TGI,ACHN renal,85.9 µM
same,GI50,HT29 colon,19.3 µM
same,TGI,HT29 colon,90.6 µM
same,GI50,DU-145 prostate,13.2 µM
same,TGI,DU-145 prostate,> 100 µM
same,GI50,HCT-15 colon,5.06 µM
same,TGI,HCT-15 colon,> 100 µM
same,GI50,NCI-H322M lung,24.6 µM
same,TGI,NCI-H322M lung,> 100 µM
same,GI50,A498 renal,5.34 µM
same,TGI,A498 renal,25.3 µM
same,GI50,CAKI-1 renal,8.55 µM
same,TGI,CAKI-1 renal,31.6 µM
same,GI50,BT-549 breast,5.63 µM
same,TGI,BT-549 breast,26.1 µM
same,GI50,SN12C renal,13.6 µM
same,TGI,SN12C renal,57.1 µM
same,GI50,MALME-3M melanoma,8.62 µM
same,TGI,MALME-3M melanoma,41.9 µM
same,GI50,NCI/ADR-RES ovarian,30.6 µM
same,TGI,NCI/ADR-RES ovarian,> 100 µM
same,GI50,KM12 colon,21.4 µM
same,TGI,KM12 colon,> 100 µM
same,GI50,COLO 205 colon,23.6 µM
same,TGI,COLO 205 colon,56 µM
same,GI50,UACC-62 melanoma,14.5 µM
same,TGI,UACC-62 melanoma,38.7 µM
same,GI50,MDA-MB-231 breast,10.9 µM
same,TGI,MDA-MB-231 breast,66 µM
same,GI50,HS 578T breast,4.02 µM
same,TGI,HS 578T breast,16.2 µM
same,GI50,TK-10 renal,7.67 µM
same,TGI,TK-10 renal,30 µM
same,GI50,SR leukemia,3.46 µM
same,TGI,SR leukemia,8.82 µM
same,GI50,SK-OV-3 ovarian,15 µM
same,TGI,SK-OV-3 ovarian,37.6 µM
same,GI50,U251 glioblastoma,17.2 µM
same,TGI,U251 glioblastoma,58.8 µM
same,GI50,HCC-2998 colon,15.1 µM
same,TGI,HCC-2998 colon,> 100 µM
same,GI50,SK-MEL-5 melanoma,17.1 µM
same,TGI,SK-MEL-5 melanoma,46.5 µM
same,GI50,786-0 renal,23.9 µM
same,TGI,786-0 renal,> 100 µM
same,GI50,HL-60(TB) leukemia,15 µM
same,TGI,HL-60(TB) leukemia,32.8 µM
same,GI50,SF-268 CNS,21.2 µM
same,TGI,SF-268 CNS,78.7 µM
same,GI50,A549 NSCLC,17.6 µM
same,TGI,A549 NSCLC,64.1 µM
same,GI50,MOLT-4 leukemia,5.83 µM
same,TGI,MOLT-4 leukemia,17.9 µM
same,GI50,NCI-H460 NSCLC,4.94 µM
same,TGI,NCI-H460 NSCLC,26.7 µM
same,GI50,SF-539 CNS,18.5 µM
same,TGI,SF-539 CNS,67.1 µM
same,GI50,NCI-H23 lung,15.6 µM
same,TGI,NCI-H23 lung,46.6 µM
same,GI50,PC-3 prostate,7.78 µM
same,TGI,PC-3 prostate,49.4 µM
same,GI50,UACC-257 melanoma,23.6 µM
same,TGI,UACC-257 melanoma,> 100 µM
same,GI50,HOP-92 NSCLC,9.41 µM
same,TGI,HOP-92 NSCLC,36.9 µM
same,GI50,OVCAR-3 ovarian,17.1 µM
same,TGI,OVCAR-3 ovarian,> 100 µM
